Assay results published in patent publication US20220243210A1, “ANGIOTENSIN II TYPE 1 RECEPTOR TARGETED OLIGONUCLEOTIDES AND USES THEREOF” (Ionis Pharmaceuticals, Inc., priority 2019, published 2022).
Oligonucleotides are written 5' to 3', each unit as a sugar letter and its base; * is a phosphorothioate linkage, no mark a phosphodiester; rarer units and linkages stand in square brackets, end groups in braces. Plain capitals give the bases only. {Cy3} = Cy3 fluorescent dye label; k = constrained ethyl (cEt); [5mC] = 5-methylcytosine; d = 2'-deoxy (DNA)

Columns and labels:
human AGTR1 = biological target: T1, human AGTR1 (Homo sapiens, UniProt P30556); assay: AGTR1 signaling, IP-One Gq kit (IP1 accumulation), HEK-AGTR1 FAP cells; type: cell-based; details: 90 minutes
T1 construct: host or cells: HEK293 (HEK-AGTR1 FAP cells)
T1 sequence (P30556 1-359): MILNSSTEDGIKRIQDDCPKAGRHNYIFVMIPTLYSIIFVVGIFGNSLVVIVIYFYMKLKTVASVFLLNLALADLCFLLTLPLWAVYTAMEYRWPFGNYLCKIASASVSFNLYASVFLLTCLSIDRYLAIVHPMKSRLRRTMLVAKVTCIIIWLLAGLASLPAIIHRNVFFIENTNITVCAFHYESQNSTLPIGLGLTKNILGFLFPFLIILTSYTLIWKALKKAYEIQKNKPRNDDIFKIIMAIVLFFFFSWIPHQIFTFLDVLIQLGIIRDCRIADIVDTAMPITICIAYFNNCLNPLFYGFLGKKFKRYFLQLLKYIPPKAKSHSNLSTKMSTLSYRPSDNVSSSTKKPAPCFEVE
Method: Activated AGTR1 couples to the Gαq subunit of heterotrimeric G proteins, which activates the phospholipase C (PLC) and subsequently inositol 1,4,5-trisphosphate (IP3) signaling cascade. AGTR1 signaling was measured using an IP-One Gq kit (cisbio #62IPAPEB). The kit detects the accumulation of inositol monophosphate (IP1), a stable downstream metabolite of IP3 induced by activation of a phospholipase C (PLC) cascade.
An additional control compound, AngII, which consists of the peptide motif […], was also tested. […] AGTR1 activation was measured using the IP-One Gq kit.

mouse MALAT RNA = assay: MALAT RNA reduction in vivo, C57BL6/J mice, with or without Losartan pretreatment; details: no Losartan, sacrifice 4 days after dose
Method: Compound Nos. 1213287 and 1295887 are described in Table 1 above. Compound Nos. 1213287 and 1295887 were tested in C57BL6/J mice with or without pretreatment with the AGTR1 antagonist, Losartan. The mice were divided into groups of 3 mice each. Mice receiving Losartan were treated with 150 mg/L in the drinking water for 10 days. Each mouse received a single IV dose on day 10 of either Compound No. 1213287 or 1295887 of either 1.2 or 3.6 μmol/kg. The mice were then sacrificed on day 14. Heart, adipose, adrenal, kidney, and liver tissue was then collected and homogenized and RNA analysis was performed. A group of 4 mice received PBS as a negative control.
RNA was extracted from heart, adipose, adrenal, kidney, and liver tissue for real-time PCR analysis of measurement of RNA expression of MALAT using primer probe set mMALAT1 #2 (forward sequence […] (SEQ ID NO: 5); reverse sequence […] (SEQ ID NO: 6); probe sequence […] (SEQ ID NO: 7)). Results are presented as percent change of RNA, relative to PBS control, normalized to mouse GAPDH.

Substance	IP1 accumulation (human AGTR1; 0.0256 nM)	IP1 accumulation (human AGTR1; 0.128 nM)	IP1 accumulation (human AGTR1; 0.64 nM)	IP1 accumulation (human AGTR1; 3.2 nM)	IP1 accumulation (human AGTR1; 16 nM)	IP1 accumulation (human AGTR1; 80 nM)	IP1 accumulation (human AGTR1; 400 nM)	IP1 accumulation (human AGTR1; 2000 nM)	MALAT RNA (% control) (mouse MALAT RNA; Adipose, single IV 1.2 μmol/kg)	MALAT RNA (% control) (mouse MALAT RNA; Adipose, single IV 3.6 μmol/kg)	MALAT RNA (% control) (mouse MALAT RNA; Adrenal, single IV 1.2 μmol/kg)	MALAT RNA (% control) (mouse MALAT RNA; Adrenal, single IV 3.6 μmol/kg)	MALAT RNA (% control) (mouse MALAT RNA; Heart, single IV 1.2 μmol/kg)	MALAT RNA (% control) (mouse MALAT RNA; Heart, single IV 3.6 μmol/kg)	MALAT RNA (% control) (mouse MALAT RNA; Kidney, single IV 1.2 μmol/kg)	MALAT RNA (% control) (mouse MALAT RNA; Kidney, single IV 3.6 μmol/kg)	MALAT RNA (% control) (mouse MALAT RNA; Liver, single IV 1.2 μmol/kg)	MALAT RNA (% control) (mouse MALAT RNA; Liver, single IV 3.6 μmol/kg)
AngII	1.183 µM	2.569 µM	1.71 µM	4.465 µM	8.913 µM	15.383 µM	13.89 µM	14.825 µM	–	–	–	–	–	–	–	–	–	–
Compound No. 1213287: Control unconjugated 19-nucleotide modified oligonucleotide TCAGCATTCTAATAGCAGC with a 3′ Cy3 label (antisense dTd[5mC]dAkG*k[5mC]*kA*dT*dT*d[5mC]*dT*dA*dA*dT*dA*dG*d[5mC]*kA*kG*k[5mC]-{Cy3}) [reference compound]	–	–	–	–	–	–	–	–	78.0 % control	53.0 % control	78.7 % control	50.0 % control	77.0 % control	57.3 % control	58.3 % control	42.3 % control	53.7 % control	35.0 % control
